According to patent US11572548B2, “Reaction mixture for synthesis of alpha1-2-fucosides” (The Regents of the University of California, priority 2015, dated 2023):
“Also recorded” adds a separate entry of the source.

How the values were obtained:
His6-Te2FT [1] = target: T1, His6-Te2FT (Thermosynechococcus vestitus, UniProt Q8DK72); test: Effects of metal ions, DTT and EDTA on α1-2-fucosyltransferase activity; assay type: biochemical, Thermosynechococcus elongatus BP-1; details: pH 7.5; for effect on α1-2-fucosyltransferase activity: 10 mM added; for effect on α1-2-fucosyltransferase activity / enhancement of α1-2-fucosyltransferase activity: acceptor Galβ1-3GlcNAcβ2AA; for enhancement of α1-2-fucosyltransferase activity: 5-20 mM added
Protocol: For metal effects, various concentrations (5 mM, 10 mM, or 20 mM) of MgCl2 or MnCl2 were added and EDTA (as a chelating agent) (10 mM) and DTT (10 mM) were used in a Tris-HCl buffer (pH 7.5, 200 mM) to analyze their effects on the α1-2-fucosyltransferase activity of His6-Te2FT for acceptor Galβ1-3GlcNAcβ2AA. Reaction without metal ions, EDTA and DTT was used as a control. The effects of metal ions Mg^2+ and Mn^2+ as well as DTT and the chelating agent EDTA on the α1-2-fucosyltransferase activity of His6-Te2FT toward and acceptor Galβ1-3GlcNAcβ2AA were examined at pH 7.5.

His6-Te2FT [2] = target: T1, His6-Te2FT; test: Kinetics of α1-2-fucosyltransferase activity by HPLC assays; assay type: biochemical, Thermosynechococcus elongatus BP-1; details: for Km / kcat: 2FT activity, apparent, pH 6.0, 37° C., MgCl2 20 mM, other substrate fixed at 1 mM
Protocol: Typical enzymatic assays were carried out in duplicate in a total volume of 10 μL in Tris-HCl buffer (pH 6.0, 200 mM) containing MgCl2 (20 mM), GDP-fucose, Galβ1-3GlcNAcβ2AA, and the recombinant His6-Te2FT (0.75 μg). All reactions were allowed to proceed for 10 min at 37° C. Apparent kinetic parameters were obtained by varying the GDP-fucose concentration from 0.1 to 10.0 mM (0.1, 0.2, 0.4, 1.0, 5.0, and 10.0 mM) and a fixed concentration of Galβ1-3GlcNAcβ2AA (1 mM); or a fixed concentration of GDP-fucose (1 mM) and varied concentrations of Galβ1-3GlcNAcβ2AA from 0.1 to 10.0 mM (0.1, 0.2, 0.4, 5.0, and 10.0 mM). The reaction mixture was quenched by boiling for 2 minutes and diluted 60-fold for detection. Apparent kinetic parameters were obtained by fitting the data into the Michaelis-Menten equation using Grafit 5.0.

His6-Te2FT [3] = target: T1, His6-Te2FT; test: Kinetics of GDP-fucose hydrolysis by capillary electrophoresis assays; assay type: biochemical, Thermosynechococcus elongatus BP-1
Protocol: The enzymatic assays were carried out in duplicate in a total volume of 10 μL in Tris-HCl buffer (200 mM, pH 9.0) containing MgCl2 (20 mM), GDP-fucose and the recombinant protein (4.5 μg). Reactions were allowed to proceed for 30 min at 37° C. Apparent kinetic parameters were obtained by varying the final GDP-fucose concentration from 0.4 to 2.0 mM (0.4, 0.5, 0.6, 0.8, 1.0 and 2.0 mM). Apparent kinetic parameters were obtained by fitting the data (the average values of duplicate assay results) into the Michaelis-Menten equation using Grafit 5.0.

[4] = system: Bifidobacterium longum subsp. infantis (B. infantis) ATCC 15697; test: Growth of bifidobacteria on mMRS medium with substrate as sole carbohydrate source; assay type: cell-based; details: 2% (wt/vol) in mMRS, 37° C., anaerobic, OD600
Protocol: (§1) B. infantis 15697 and B. animalis 27536 were tested for growth in the presence of glucose, HMOS, and LNFP I. Growth assays were performed as previously described.^[35] Briefly, two microliters of each resulting overnight culture was used to inoculate 150 μL of modified MRS medium (mMRS), devoid of glucose and supplemented with 2% (wt/vol) of each sterile-filtered substrate as the sole carbohydrate source. The medium was supplemented with 0.05% (wt/vol) 1-cysteine, and in all the cases the cultures in the wells of the microtiter plates were covered with 30 μL of sterile mineral oil to avoid evaporation. The incubations were carried out at 37° C. in an anaerobic chamber (Coy Laboratory Products). Cell growth was monitored in real time by assessing optical density at 600 nm (OD600) using a BioTek PowerWave 340 plate reader (BioTek, Winoosky, Vt.) every 30 min, preceded by 30 seconds of shaking at variable speed. Two biological replicates and three technical replicates each were performed for every strain. Fermentations were carried out in triplicate.

[5] = system: Bifidobacterium animalis subsp. lactis (B. lactis) ATCC 27536; test: as above; assay type: cell-based; details: 2% (wt/vol) in mMRS, 37° C., anaerobic, OD600
Protocol: as §1

His6-Te2FT [6] = target: T1, His6-Te2FT; test: Acceptor substrate specificity studies of His6-Te2FT; assay type: biochemical, Thermosynechococcus elongatus BP-1
[7] = Effect of temperature on α1-2-fucosyltransferase activity of His6-Te2FT; assay type: biochemical
Protocol: Assays were carried out in a total volume of 10 μL in a Tris-HCl buffer (pH 6.0, 200 mM) at temperatures ranging from 15° C. to 70° C. The reaction mixture contained GDP-fucose (1 mM), MgCl2 (20 mM), Galβ1-3GlcNAcβ2AA (1 mM), and the recombinant His6-Te2FT (1.5 μg). All reactions were allowed to proceed for 10 minutes at various temperatures. The reaction was stopped by boiling for 2 minutes, and diluted 60-fold for detection.

[8] = pH profile of α1-2-fucosyltransferase activity of His6-Te2FT by HPLC; assay type: biochemical
Protocol: Each reaction was carried out in duplicate at 37° C. for 10 minutes in a total volume of 10 μL in a buffer (200 mM) with pH varying from 3.0 to 11.0. The buffers used were: Citric, pH 3.0-4.0, NaOAc/HOAc, pH 4.5, MES, pH 5.0-6.5; Tris-HCl, pH 7.0-9.0; and CAPS, pH 10.0-11.0. The reaction system was: GDP-fucose (1 mM), fluorophore 2-anthranilic acid (2AA)-labeled oligosaccharide (Galβ1-3GlcNAcβ2AA, 1 mM), MgCl2 (20 mM), and the recombinant enzyme, His6-Te2FT (0.25 μg). The reaction mixture was stopped by boiling for 2 min and then adding an equal volume of water (10 μL) to make a […] dilution for Galβ1-3GlcNAcβ2AA. The samples were analyzed by a Shimadzu LC-2010A system equipped with a membrane online degasser, a temperature control unit and a fluorescence detector. A reverse-phase Premier C18 column (250×4.6 mm i.d., 5 μm particle size, Shimadzu) protected with a C18 guard column cartridge was used. The mobile phase was 20% acetonitrile. The ratio of the absorbance for fluorescent-labeled product at 315-400 nm was determined.

[9] = Effect of freeze-dry cycle (lyophilization and rehydration) on His6-Te2FT activity; assay type: biochemical; details: lyophilized, rehydrated
Protocol: Purified His6-Te2FT samples were prepared essentially as described in Example 1, and were dialyzed against 20 mM Tris-HCl without glycerol and lyophilized. The Te2FT powders were stored at −70° C. for 20 days, or for several months. After that, the dried powder was dissolved in water and 20 mM Tris-HCl buffer, respectively. The activities of the lyophilized His6-Te2FT samples were compared with the same amount and concentration of freshly prepared Te2FT samples. The reaction mixture was GDP-fucose (1 mM), Galβ1-3GlcNAcβ2AA, (1 mM), MgCl2 (20 mM), and His6-Te2FT (0.75 μg). All reactions were performed in duplicate and allowed to proceed for 10 minutes at 37° C.

[10] = pH profile of GDP-fucose hydrolysis of His6-Te2FT by capillary electrophoresis; assay type: biochemical
Protocol: Each reaction was carried out in duplicate at 37° C. for 30 minutes in a total volume of 10 μL in a buffer (200 mM) with pH varying from 3.0 to 11.0. The buffers used were: Citric, pH 3.0-4.0, NaOAc/HOAc, pH 4.5, MES, pH 5.0-6.5; Tris-HCl, pH 7.0-9.0; and CAPS, pH 10.0-11.0 containing GDP-fucose (1 mM), MgCl2 (20 mM) and the recombinant enzyme (3.75 μg). Reactions were stopped by boiling for 2 min followed by adding an equal volume of water (10 μL) to make a two-fold dilution. The samples were kept on ice until aliquots of 6 μL were withdrawn and analyzed by a Beckman P/ACE MDQ capillary electrophoresis system (60 cm×75 μm i.d.) with a PDA detector. The ratio of the absorbance for GDP-fucose and GDP at 254 nm was determined at different concentrations (2.5, 5, and 10 mM). All assays were carried out in duplicate.

[11] = GDP-Fuc hydrolysis, apparent, pH 9.0, 37° C., MgCl2 20 mM
[12] = acceptor Galβ1-3GlcNAcβ2AA, 37° C., 10 minutes

O[C@H](CS)[C@H](O)CS (racemic) [DTT, dithiothreitol]
effect on α1-2-fucosyltransferase activity (His6-Te2FT [1]): decreased His6-Te2FT activity moderately

O=C(O)CN(CCN(CC(=O)O)CC(=O)O)CC(=O)O [EDTA, ethylenediaminetetraacetic acid]
effect on α1-2-fucosyltransferase activity (His6-Te2FT [1]): decreased its activity only slightly

C[C@@H]1O[C@H](OP(=O)(O)OP(=O)(O)OC[C@H]2O[C@@H](n3cnc4c(=O)[nH]c(N)nc43)[C@H](O)[C@@H]2O)[C@@H](O)[C@H](O)[C@@H]1O [GDP-fucose, Guanosine 5′-diphosphate-fucose]
Km (His6-Te2FT [2]): 730 ± 680 µM | kcat (His6-Te2FT [2]): 0.438 ± 0.013 s⁻¹ | kcat value for GDP-fucose, higher compared to GST-WbsJ (His6-Te2FT [2]; His6-Te2FT versus GST-WbsJ, acceptor Galβ1-3GlcNAcβ2AA): 201 fold | kcat value for GDP-fucose, higher compared to His6Prop-WgbL (His6-Te2FT [2]; His6-Te2FT versus His6Prop-WgbL, acceptor Galβ1-3GlcNAcβ2AA): 6.7 fold | kcat value for GDP-fucose, higher compared to Hp2FT (His6-Te2FT [2]; His6-Te2FT versus Hp2FT, acceptor Galβ1-3GlcNAcβ2AA): 14.6 fold | kcat/KM value for GDP-Fuc, higher than WbgL (His6-Te2FT [2]; His6-Te2FT versus WbgL): 2.5 fold | kcat/KM value for GDP-Fuc, higher than WbsJ (His6-Te2FT [2]; His6-Te2FT versus WbsJ): 29.2 fold | Km (His6-Te2FT [3]; [11]): 560 ± 210 µM | kcat (His6-Te2FT [3]; [11]): 0.005 ± 0.001 s⁻¹ | GDP-fucose (donor) hydrolysis activity weaker than α1-2-fucosyltransferase activity (His6-Te2FT [3]; His6-Te2FT, ratio of kcat/KM): 47 fold

CC(=O)N[C@H]1[C@H](O[C@H]2[C@@H](O)[C@@H](CO)O[C@@H](O[C@H]3[C@H](O)[C@@H](O)C(O)O[C@@H]3CO)[C@@H]2O)O[C@H](CO)[C@@H](O)[C@@H]1O[C@@H]1O[C@H](CO)[C@H](O)[C@H](O)[C@H]1O[C@@H]1O[C@@H](C)[C@@H](O)[C@@H](O)[C@@H]1O (some centres unmarked) [LNFP I, Fucα1-2Galβ1-3GlcNAcβ1-3Galβ1-4Glc]
growth compared with growth on glucose [4]: remarkably faster | growth with substrate as sole carbon source [4]: grew well; also recorded: selectively consumed as a carbon source | growth with substrate as sole carbon source [5]: failed to grow

[Cl-].[Cl-].[Mg+2] [Mg^2+, MgCl2]
enhancement of α1-2-fucosyltransferase activity (His6-Te2FT [1]): about two-fold

[Cl][Mn][Cl] [Mn^2+, MnCl2]
enhancement of α1-2-fucosyltransferase activity (His6-Te2FT [1]): about two-fold

Gal1-3GlcNAcαOR
suitability as acceptor substrate for adding α1-2-linked fucose (His6-Te2FT [6]): worked well

Gal β1-3GlcNAcβ1-3Galβ1-4Glc [LNT]
suitability as acceptor substrate for adding α1-2-linked fucose (His6-Te2FT [6]): excellent acceptor

Galβ1-3GalNAcαOR
suitability as acceptor substrate for adding α1-2-linked fucose (His6-Te2FT [6]): worked well

Galβ1-3GalNAcβOR
suitability as acceptor substrate for adding α1-2-linked fucose (His6-Te2FT [6]): worked well

Galβ1-3GlcNAcβ2AA
Km (His6-Te2FT [2]): 790 ± 110 µM | kcat (His6-Te2FT [2]): 0.333 ± 0.012 s⁻¹ | affinity for the acceptor compared to GST-WbsJ, His6Prop-WgbL and Hp2FT (His6-Te2FT [2]; His6-Te2FT versus other 2FTs): higher affinity

Galβ1-3GlcNAcβOR
suitability as acceptor substrate for adding α1-2-linked fucose (His6-Te2FT [6]): worked well

Galβ1-4GlcNAcβOR
suitability as acceptor substrate for adding α1-2-linked fucose (His6-Te2FT [6]): not good acceptors

Galβ1-4GlcβOR
suitability as acceptor substrate for adding α1-2-linked fucose (His6-Te2FT [6]): not good acceptors

B1: His6-Te2FT: N-His6-tagged recombinant α1-2-fucosyltransferase from Thermosynechococcus elongatus BP-1 (SEQ ID NO:1) (protein, listed as Thermosynechococcus elongatus)
chain: MIIVHLCGGLGNQMFQYAAGLAAAHRIGSEVKFDTHWFDATCLHQGLELRRVFGLELPEPSSKDLRKVLGACVHPAVRRLLAGHFLHGLRPKSLVIQPHFHYWTGFEHLPDNVYLEGYWQSERYFSNIADIIRQQFRFVEPLDPHNAALMDEMQSGVSVSLHIRRGDYFNNPQMRRVHGVDLSEYYPAAVATMIEKTNAERFYVFSDDPQWVLEHLKLPVSYTVVDHNRGAASYRDMQLMSACRHHIIANSTFSWWGAWLNPRPDKVVIAPRHWFNVDVFDTRDLYCPGWIVL
modifications: N-terminal His6 tag
activity at low temperature ([7]; 15° C. and 20° C.): Low activity | activity at high temperature ([7]; 65° C. or 70° C.): minimal activity | temperature range in which active ([7]; pH 6.0, 10 minutes): 25-60 °C | temperature range of optimal activities ([7]; pH 6.0, 10 minutes): 30-45 °C | pH of optimal activities [8, 12]: 4.5-6.0 | pH range in which active [8, 12]: 4.0-10.0 | activity as % of the optimal activity ([8]; pH 6.5): About 85% | stability to freeze-dry treatment [9]: can survive a freeze-dry treatment | requirement of a divalent metal ion for α1-2-fucosyltransferase activity (His6-Te2FT [1]): not required | optimal pH for the GDP-fucose hydrolysis activity ([10]; 37° C., 30 minutes): 9.5 | donor hydrolysis activity ([10]; pH range 5.0-8.0, 15-fold more enzyme and 3-fold longer reaction time): at a minimum
